Laboratory results taken from US20100152128A1, “Antiviral Agents” (priority 2007, published 2010).
Where two headings read alike, the source gives them in different places.

Test system: subgenomic HCV Replicon in HuH-7 cells
Experiment: Assay for inhibition of HCV RNA replication (replicon, in situ ribonuclease protection SPA)
Assay type: cell-based, Hepatitis C Virus
[1] = Hepatitis C virus, HuH-7 hepatoma cells containing a subgenomic HCV Replicon, inhibition of HCV RNA replication, read-out: EC50
[2] = HuH-7 hepatoma cells containing a subgenomic HCV Replicon, inhibition of HCV RNA replication, read-out: EC50

SMILES | EC50 [1] | other results
CCCC(CCC)COC(=O)[C@H](C)NP(=O)(O)OC[C@H]1O[C@@H](n2ccc(N)nc2=O)[C@](C)(O)[C@@H]1O [Example 2, 5′-O-[hydroxy[[(1S)-1-methyl-2-oxo-2-[(2-propylpentyl)oxy]ethyl]amino]phosphinyl]-2′-C-methylcytidine] | 6 µM | 
C[C@H](NP(=O)(O)OC[C@H]1O[C@@H](n2ccc(N)nc2=O)[C@](C)(O)[C@@H]1O)C(=O)OC1CCCCCC1 [Example 4, 5′-O-[[[(1S)-2-(cycloheptyloxy)-1-methyl-2-oxoethyl]amino]hydroxyphosphinyl]-2′-C-methylcytidine] | 9.9 µM | 
C[C@H](NP(=O)(O)OC[C@H]1O[C@@H](n2ccc(N)nc2=O)[C@](C)(O)[C@@H]1O)C(=O)OC1CCCCCCC1 [Example 5, 5′-O-[[[(1S)-2-(cyclooctyloxy)-1-methyl-2-oxoethyl]amino]hydroxyphosphinyl]-2′-C-methylcytidine] | 9.9 µM | 
CCCC(CCC)COC(=O)C(C)NP(=O)(O)OC[C@H]1O[C@@H](n2ccc3c(N)ncnc32)[C@](C)(O)[C@@H]1O (stereo partly shown) [Example 10, 5′-O-[hydroxyl[[1-methyl-2-oxo-2-[(propylpentyl)oxy]ethyl]amino]phosphinyl]-2′-C-methyl-7-deaza adenosine] |  | EC50 [2]: 1.1 µM
CCCC(CCC)c1noc([C@H](C)NP(=O)(O)OC[C@H]2O[C@@H](n3ccc(N)nc3=O)[C@](C)(O)[C@@H]2O)n1 [Example 8, [(3aR, 4aR, 6R, 6aR)-6-(4-amino-2-oxopyrimidin-1(2H)-yl)-3,4-dihydroxy-4-methyltetrahydrofuran-2-yl]methyl hydrogen{(1S)-1-[3-(1-propylbutyl)-1,2,4-oxadiazol-5-yl]ethyl}amidophosphate] |  | EC50 [2]: 5.4 µM
CCCC(CCC)c1nnc([C@H](C)NP(=O)(O)OC[C@H]2O[C@@H](n3ccc(N)nc3=O)[C@](C)(O)[C@@H]2O)o1 [Example 9, 5-O-[hydroxy[[1-[5-(1-propylbutyl)-1,3,4-oxadiazol-2-yl]ethyl]amino]phosphinyl]-2′-C-methylcytidine] |  | EC50 (Hepatitis C virus, Huh-7): 10.6 µM
CCCC(CCC)C(=O)OCCNP(=O)(O)OC[C@H]1O[C@@H](n2ccc3c(N)ncnc32)[C@](C)(O)[C@@H]1O [Example 11, 5′-O-[hydroxyl[[2-[(1-oxo-2-propylpentyl)oxy]ethyl]amino]phosphinyl]-2′-C-methyl-7-deaza adenosine] | 0.7 µM | 
